Read-outs that look alike come from different tables or passages of the source.
Tests used:
DENV 2 = assay: microbe, parasite or virus in culture; assay type: cell-based, dengue virus; conditions: Dengue virus, read-out: DENV 2
WNV = assay: microbe, parasite or virus in culture; assay type: cell-based, West Nile virus; conditions: West Nile virus, read-out: WNV
in vitro = conditions: human
[1] = Stability in human plasma
[2] = Safety in the chimpanzee model of chronic HCV infection; assay type: in vivo; conditions: 10 or 20 mg/kg/day dihydrochloride PO, 7 days
Description: Chimpanzees were monitored by trained veterinarians throughout the study for weight loss, temperature, appetite, and general well being, as well as for blood chemistry profile and CBCs. […] The drug appeared to be well tolerated by all four treated animals. […] A single animal experienced an alanine aminotransferase (ALT) flare in the pretreatment period prior to the start of dosing, but the ALT levels diminished during treatment. Thus, this isolated ALT event was not attributable to drug.

HCV = assay: Clinical antiviral activity, serum HCV RNA (Amplicor HCV Monitor), val-mCyd daily for 15 days
Sb-1 = assay: organism not typed; assay type: cell-based, Sabin type 1 poliomyelitis virus; conditions: read-out: Sb-1

CC(C)C(N)C(=O)OC1[C@@H](CO)O[C@@H](n2ccc(N)nc2=O)[C@@]1(C)O (some centres unmarked) [val-mCyd, 2-Amino-3-methyl-butyric acid 5-(4-amino-2-oxo-2H-pyrimidine-1-yl)-4-hydroxy-2 hydroxy-methyl-4-methyl-tetrahydro-furan-3-yl ester]
EC50 (DENV 2): > 100 µM
EC50 (WNV): 82 µM
CC50 (in vitro): 24 µM
mean reduction from baseline HCV viral load (HCV genotype 1; 8.3 mg/kg/day dose group, end of treatment (day 7)): 0.83 log10
Change in baseline Log10 HCV RNA viral load (HCV genotype 1; 8.3 mpk, animal 500, site 1, Day 2): −1.156 log10
Change in baseline Log10 HCV RNA viral load (HCV genotype 1; 8.3 mpk, animal 500, site 1, Day 5): −0.4038 log10
Change in baseline Log10 HCV RNA viral load (HCV genotype 1; 8.3 mpk, animal 500, site 1, Day 7): −0.8051 log10
Change in baseline Log10 HCV RNA viral load (HCV genotype 1; 8.3 mpk, animal 500, site 2, Day 2): −1.079 log10
Change in baseline Log10 HCV RNA viral load (HCV genotype 1; 8.3 mpk, animal 500, site 2, Day 5): −0.5503 log10
Change in baseline Log10 HCV RNA viral load (HCV genotype 1; 8.3 mpk, animal 500, site 2, Day 7): −1.063 log10
Change in baseline Log10 HCV RNA viral load (HCV genotype 1; 8.3 mpk, animal 501, site 1, Day 2): −0.2518 log10
Change in baseline Log10 HCV RNA viral load (HCV genotype 1; 8.3 mpk, animal 501, site 1, Day 5): −0.3618 log10
Change in baseline Log10 HCV RNA viral load (HCV genotype 1; 8.3 mpk, animal 501, site 1, Day 7): −0.4361 log10
Change in baseline Log10 HCV RNA viral load (HCV genotype 1; 8.3 mpk, animal 501, site 2, Day 2): −0.452 log10
Change in baseline Log10 HCV RNA viral load (HCV genotype 1; 8.3 mpk, animal 501, site 2, Day 5): −0.7125 log10
Change in baseline Log10 HCV RNA viral load (HCV genotype 1; 8.3 mpk, animal 501, site 2, Day 7): −0.9003 log10
Change in baseline Log10 HCV RNA viral load (HCV genotype 1; 16.6 mpk, animal 497, site 1, Day 2): −0.7215 log10
Change in baseline Log10 HCV RNA viral load (HCV genotype 1; 16.6 mpk, animal 497, site 1, Day 5): −0.907 log10
Change in baseline Log10 HCV RNA viral load (HCV genotype 1; 16.6 mpk, animal 497, site 1, Day 7): −1.277 log10
Change in baseline Log10 HCV RNA viral load (HCV genotype 1; 16.6 mpk, animal 497, site 2, Day 2): −0.8556 log10
Change in baseline Log10 HCV RNA viral load (HCV genotype 1; 16.6 mpk, animal 497, site 2, Day 5): −1.02 log10
Change in baseline Log10 HCV RNA viral load (HCV genotype 1; 16.6 mpk, animal 497, site 2, Day 7): −1.514 log10
Change in baseline Log10 HCV RNA viral load (HCV genotype 1; 16.6 mpk, animal 498, site 1, Day 2): −0.2947 log10
Change in baseline Log10 HCV RNA viral load (HCV genotype 1; 16.6 mpk, animal 498, site 1, Day 5): −0.2814 log10
Change in baseline Log10 HCV RNA viral load (HCV genotype 1; 16.6 mpk, animal 498, site 1, Day 7): −0.603 log10
Change in baseline Log10 HCV RNA viral load (HCV genotype 1; 16.6 mpk, animal 498, site 2, Day 2): −0.6585 log10
Change in baseline Log10 HCV RNA viral load (HCV genotype 1; 16.6 mpk, animal 498, site 2, Day 5): −0.5597 log10
Change in baseline Log10 HCV RNA viral load (HCV genotype 1; 16.6 mpk, animal 498, site 2, Day 7): −0.6914 log10
HCV viral load (HCV genotype 1; animal 497, site 2, day 7, pretreatment 535,000): 16,500 genomes per ml
input val-mCyd remaining ([1]; 37° C., after 10 hours): 2%
half-life ([1]; human, plasma): 1.81 h
adverse events, tolerability [2]: No adverse events due to drug were noted
HCV RNA in Log10 scale, mean (HCV; 50 mg, Day 1 (baseline)): 6.72 log10
HCV RNA in Log10 scale, median (HCV; 50 mg, Day 1 (baseline)): 6.69 log10
Change from baseline (Day 1) in Log10 HCV RNA, mean (HCV; 50 mg, Day 2): −0.13 log10
Change from baseline (Day 1) in Log10 HCV RNA, median (HCV; 50 mg, Day 2): −0.07 log10
HCV RNA in Log10 scale, mean (HCV; 50 mg, Day 2): 6.60 log10
HCV RNA in Log10 scale, median (HCV; 50 mg, Day 2): 6.58 log10
Change from baseline (Day 1) in Log10 HCV RNA, mean (HCV; 50 mg, Day 4): −0.16 log10
Change from baseline (Day 1) in Log10 HCV RNA, median (HCV; 50 mg, Day 4): −0.13 log10
HCV RNA in Log10 scale, mean (HCV; 50 mg, Day 4): 6.56 log10
HCV RNA in Log10 scale, median (HCV; 50 mg, Day 4): 6.55 log10
Change from baseline (Day 1) in Log10 HCV RNA, mean (HCV; 50 mg, Day 8): −0.11 log10
Change from baseline (Day 1) in Log10 HCV RNA, median (HCV; 50 mg, Day 8): −0.06 log10
HCV RNA in Log10 scale, mean (HCV; 50 mg, Day 8): 6.62 log10
HCV RNA in Log10 scale, median (HCV; 50 mg, Day 8): 6.56 log10
Change from baseline (Day 1) in Log10 HCV RNA, mean (HCV; 50 mg, Day 11): −0.26 log10
Change from baseline (Day 1) in Log10 HCV RNA, median (HCV; 50 mg, Day 11): −0.26 log10
HCV RNA in Log10 scale, mean (HCV; 50 mg, Day 11): 6.47 log10
HCV RNA in Log10 scale, median (HCV; 50 mg, Day 11): 6.46 log10
Change from baseline (Day 1) in Log10 HCV RNA, mean (HCV; 50 mg, Day 15): −0.15 log10
Change from baseline (Day 1) in Log10 HCV RNA, median (HCV; 50 mg, Day 15): −0.10 log10
HCV RNA in Log10 scale, mean (HCV; 50 mg, Day 15): 6.57 log10
HCV RNA in Log10 scale, median (HCV; 50 mg, Day 15): 6.57 log10
Change from baseline (Day 1) in Log10 HCV RNA, mean (HCV; 50 mg, Day 16): −0.15 log10
Change from baseline (Day 1) in Log10 HCV RNA, median (HCV; 50 mg, Day 16): −0.13 log10
HCV RNA in Log10 scale, mean (HCV; 50 mg, Day 16): 6.57 log10
HCV RNA in Log10 scale, median (HCV; 50 mg, Day 16): 6.45 log10
Change from baseline (Day 1) in Log10 HCV RNA, mean (HCV; 50 mg, Day 17): −0.18 log10
Change from baseline (Day 1) in Log10 HCV RNA, median (HCV; 50 mg, Day 17): −0.21 log10
HCV RNA in Log10 scale, mean (HCV; 50 mg, Day 17): 6.54 log10
HCV RNA in Log10 scale, median (HCV; 50 mg, Day 17): 6.54 log10
Change from baseline (Day 1) in Log10 HCV RNA, mean (HCV; 50 mg, Day 22): −0.09 log10
Change from baseline (Day 1) in Log10 HCV RNA, median (HCV; 50 mg, Day 22): −0.09 log10
HCV RNA in Log10 scale, mean (HCV; 50 mg, Day 22): 6.64 log10
HCV RNA in Log10 scale, median (HCV; 50 mg, Day 22): 6.73 log10
Change from baseline (Day 1) in Log10 HCV RNA, mean (HCV; 50 mg, Day 29): −0.01 log10
Change from baseline (Day 1) in Log10 HCV RNA, median (HCV; 50 mg, Day 29): −0.04 log10
HCV RNA in Log10 scale, mean (HCV; 50 mg, Day 29): 6.71 log10
HCV RNA in Log10 scale, median (HCV; 50 mg, Day 29): 6.67 log10
HCV RNA in Log10 scale, mean (HCV; 50 mg, Day −1 (pre-treatment)): 6.72 log10
HCV RNA in Log10 scale, median (HCV; 50 mg, Day −1 (pre-treatment)): 6.81 log10
HCV RNA in Log10 scale, mean (HCV; 100 mg, Day 1 (baseline)): 6.68 log10
HCV RNA in Log10 scale, median (HCV; 100 mg, Day 1 (baseline)): 6.93 log10
Change from baseline (Day 1) in Log10 HCV RNA, mean (HCV; 100 mg, Day 2): −0.16 log10
Change from baseline (Day 1) in Log10 HCV RNA, median (HCV; 100 mg, Day 2): −0.12 log10
HCV RNA in Log10 scale, mean (HCV; 100 mg, Day 2): 6.52 log10
HCV RNA in Log10 scale, median (HCV; 100 mg, Day 2): 6.80 log10
Change from baseline (Day 1) in Log10 HCV RNA, mean (HCV; 100 mg, Day 4): −0.25 log10
Change from baseline (Day 1) in Log10 HCV RNA, median (HCV; 100 mg, Day 4): −0.24 log10
HCV RNA in Log10 scale, mean (HCV; 100 mg, Day 4): 6.43 log10
HCV RNA in Log10 scale, median (HCV; 100 mg, Day 4): 6.46 log10
Change from baseline (Day 1) in Log10 HCV RNA, mean (HCV; 100 mg, Day 8): −0.21 log10
Change from baseline (Day 1) in Log10 HCV RNA, median (HCV; 100 mg, Day 8): −0.20 log10
HCV RNA in Log10 scale, mean (HCV; 100 mg, Day 8): 6.42 log10
HCV RNA in Log10 scale, median (HCV; 100 mg, Day 8): 6.59 log10
Change from baseline (Day 1) in Log10 HCV RNA, mean (HCV; 100 mg, Day 11): −0.32 log10
Change from baseline (Day 1) in Log10 HCV RNA, median (HCV; 100 mg, Day 11): −0.28 log10
HCV RNA in Log10 scale, mean (HCV; 100 mg, Day 11): 6.36 log10
HCV RNA in Log10 scale, median (HCV; 100 mg, Day 11): 6.56 log10
Change from baseline (Day 1) in Log10 HCV RNA, mean (HCV; 100 mg, Day 15): −0.38 log10
Change from baseline (Day 1) in Log10 HCV RNA, median (HCV; 100 mg, Day 15): −0.43 log10
HCV RNA in Log10 scale, mean (HCV; 100 mg, Day 15): 6.30 log10
HCV RNA in Log10 scale, median (HCV; 100 mg, Day 15): 6.41 log10
Change from baseline (Day 1) in Log10 HCV RNA, mean (HCV; 100 mg, Day 16): −0.39 log10
Change from baseline (Day 1) in Log10 HCV RNA, median (HCV; 100 mg, Day 16): −0.49 log10
HCV RNA in Log10 scale, mean (HCV; 100 mg, Day 16): 6.23 log10
HCV RNA in Log10 scale, median (HCV; 100 mg, Day 16): 6.40 log10
Change from baseline (Day 1) in Log10 HCV RNA, mean (HCV; 100 mg, Day 17): −0.18 log10
Change from baseline (Day 1) in Log10 HCV RNA, median (HCV; 100 mg, Day 17): −0.24 log10
HCV RNA in Log10 scale, mean (HCV; 100 mg, Day 17): 6.65 log10
HCV RNA in Log10 scale, median (HCV; 100 mg, Day 17): 6.72 log10
Change from baseline (Day 1) in Log10 HCV RNA, mean (HCV; 100 mg, Day 22): −0.15 log10
Change from baseline (Day 1) in Log10 HCV RNA, median (HCV; 100 mg, Day 22): −0.19 log10
HCV RNA in Log10 scale, mean (HCV; 100 mg, Day 22): 6.53 log10
HCV RNA in Log10 scale, median (HCV; 100 mg, Day 22): 6.66 log10
Change from baseline (Day 1) in Log10 HCV RNA, mean (HCV; 100 mg, Day 29): 0.13 log10
Change from baseline (Day 1) in Log10 HCV RNA, median (HCV; 100 mg, Day 29): −0.12 log10
HCV RNA in Log10 scale, mean (HCV; 100 mg, Day 29): 6.67 log10
HCV RNA in Log10 scale, median (HCV; 100 mg, Day 29): 6.71 log10
HCV RNA in Log10 scale, mean (HCV; 100 mg, Day −1 (pre-treatment)): 6.60 log10
HCV RNA in Log10 scale, median (HCV; 100 mg, Day −1 (pre-treatment)): 6.75 log10
EC50 (Sb-1): 14 µM

Source: patent US7625875B2 (priority 2002, dated 2009)
